Results reported in patent publication US20160176855A1, “Novel Sterically Hindered Cyclic Amines” (CLARIANT INTERNATIONAL LTD, priority 2013, published 2016).

Experiment: Solubility in solvents
Assay type: physicochemical

Compound: CC1(C)CC(NC(=O)c2ccc(C(=O)NC3CC(C)(C)NC(C)(C)C3)o2)CC(C)(C)N1 [Example 2, N,N′-bis(2,2,6,6-tetramethyl-4-piperidinyl)-2,5-furandicarboxamide]
- Solubility (in DMF): soluble
- Solubility (in ethanol): soluble
- Solubility (in hexane): insoluble
- Solubility (in methanol): soluble
- Solubility (in water): insoluble
